Assay: method code SF-AS, from DOI: 10.1016/0014-5793(90)81139-f, PMID: 2387393
Settings: pH 2.0

logD | SMILES
0.17 | COc1cc(O)cc(OC)c1O
0.47 | COc1cc(O)ccc1O
0.27 | COC1=CC(=O)C=CC1=O
1.38 | Cc1cc(O)cc(Br)c1O
1.02 | COc1c(O)cc(C)c(O)c1OC
0.39 | COc1c(O)c(OC)c(OC)c(O)c1OC
1.21 | CC1=CC(=O)C=C(Br)C1=O
1.69 | Cc1cc(O)c(C)c(C)c1O
1.6 | COc1c(O)c(C)c(C)c(O)c1OC
-0.05 | COC1=CC(=O)C=C(OC)C1=O
1.26 | COC1=C(OC)C(=O)C(C)=C(C)C1=O

SMILES | logD
CC1=CC(=O)C=CC1=O | 0.67
